# Assay results reported in PMC10619133, “The catechol moiety of obafluorin is essential for antibacterial activity” (RSC Chemical Biology, 2023).
# Where two headings read alike, the source gives them in different places.
# Tests used:
# [1] = Hydrolysis of the β-lactone in HEPES buffer monitored by HPLC; format: physicochemical; conditions: for hydrolysis of β-lactone (in words): 30 min, no Fe^3+
# Description: Hydrolysis of 1–4 was analysed on an Agilent 1290 system fitted with an Agilent LC/MSD MS spectrometer. A Kinetex XB-C18, 100 × 4.6 mm, 5 μM column (Phenomenex) was used with a gradient elution: ACN/0.1% (v/v) FA (H2O) gradient from 5/95 for 0–0.5 min, 5/95 to 98/2 0.5–12 min, 98/2 for 12–13 min, gradient to 5/95 13–13.5 min and 5/95 for 13.5–15 min. The flow rate was 0.6 mL min^−1 and the injection volume of each sample 5 μL. DAD signals were analysed at 270 nm, with a bandwidth of 4 nm. MS were recorded in positive mode using an atmospheric pressure ionisation electrospray (API-ES) ion source with a capillary voltage of 3000 V. The drying gas temperature was 350 °C with a flow rate of 12 L min^−1. The scan parameters were: mass range = 200–1500; fragmentor = 70; gain EMV = 1.0; threshold = 150; step-size = 0.10. Data were analysed with Agilent ChemStation software.
# Five solutions of HEPES buffer (111 mM) were prepared at pH 6.0, 6.5, 7.0, 7.5 and 8.0 respectively. A further five solution of HEPES buffer (111 mM) with Fe(NO3)3.9H2O ([…]) were also prepared at pH 6.0, 6.5, 7.0, 7.5, 8.0 respectively. Stock solutions of 1–4 (10 mM) were prepared in DMSO. For each hydrolysis experiment, stock solution of 1–4 (10 μL) was added the HEPES buffer (90 μL) or the HEPES + Fe(NO3)3.9H2O buffer (90 μL), to give final concentrations of HEPES (100 mM), 1–4 (1 mM) and Fe^3+ (0 or 1 mM). The reaction mixtures were shaken using a bench top vortex and left to stand for 30 min, after which the samples were analysed by HPLC using the Analytical HPLC method. All stock solutions of 1–4 were tested at every pH, with and without Fe^3+ and all experiments were repeated in triplicate.
# [2] = tested on: MRSA; test: Spot-on-lawn MIC bioassay; format: cell-based, Methicillin-resistant Staphylococcus aureus; conditions: for MIC: Staphylococcus aureus, MRSA, read-out: MIC
# Description: (§1) Indicator strains were grown for 16–18 h in LB (5 mL) by inoculation from a single colony. An aliquot of the resulting culture (500 μL) was then used to inoculate LB (50 mL in 250 mL Erlenmeyer flasks), followed by orbital shaking at 250 rpm until they reached an OD600 of 0.3–0.4. These cultures were then diluted 1 : 10 with molten soft nutrient agar (SNA), before pouring into appropriately sized Petri dishes to set. Serial dilutions of the test compounds (from 256 μg mL^−1 to 1 μg mL^−1 plus an additional sample at 1000 μg mL^−1) were prepared in acetonitrile (ACN), and 4 μL of each sample was applied directly onto the SNA surface. Kanamycin (50 μg mL^−1), apramycin (50 μg mL^−1) or aureobasidin A (0.2 μg mL^−1) were used as positive controls, as appropriate, and ACN or water (4 μL) were used as negative controls. […] Experiments were carried out in at least triplicate for each strain.
# (§2) The method was the same as for the antibacterial MIC assays described above, with the following modifications: for excess iron, Fe(NO3)3·9H2O stock (400 mM) was added to give a final concentration of 1.5 or 2.0 mM; for iron depletion, bipy stock (1 M) was added to give a final concentration of 150 μM. For MRSA, 1 was further diluted to 0.5 0.25 and 0.125 μg mL^−1 due to a decrease in MIC under excess iron conditions. The general effect of excess iron on the activity of alternative antibiotics was determined by performing a similar serial dilution of carbenicillin, kanamycin, streptomycin, nitrofurantoin and chloramphenicol in the presence of Fe^3+.
# [3] = tested on: S. cerevisiae; test: Spot-on-lawn MIC bioassay; format: cell-based, S. cerevisiae NCYC 2939; conditions: Saccharomyces cerevisiae
# Description: as §1
# [4] = tested on: E. coli BW25113 Δ6; test: Spot-on-lawn MIC bioassay, TBDT knock-out mutant; format: cell-based; conditions: for MIC: Escherichia coli
# Description: as §1, §2
# [5] = tested on: E. coli BW25113 Δ3; test: Spot-on-lawn MIC bioassay, TBDT knock-out mutant; format: cell-based; conditions: for MIC: Escherichia coli
# Description: as §1, §2
# [6] = BW25113, iron replete, +Fe^3+ (2 mM)
structure (smiles),measurement,setting,value
"O=C(N[C@@H]1C(=O)O[C@@H]1Cc1ccc([N+](=O)[O-])cc1)c1cccc(O)c1O [compound 1, Obafluorin]",effect of added Fe^3+ on hydrolysis (in words),"[1]; Fe^3+ 1 mM, HEPES 100 mM, pH 6.0–8.0, 30 min",protected 1 against hydrolysis at all pH values
same,hydrolysis of β-lactone (in words),"[1]; pH 6.0, HEPES 100 mM",little change
same,hydrolysis of β-lactone (in words),"[1]; pH 8.0, HEPES 100 mM",majority of 1 in the hydrolysed form
same,MIC,[2]; +Fe^3+ (2 mM) in the media,0.25 µg/mL
same,MIC,"[2]; spot-on-lawn, standard conditions",2 µg/mL
same,decrease in MIC with added Fe^3+,[2]; with vs without Fe^3+ in growth agar,8 fold
same,MIC,"[3]; Figure S12 legend, read-out: Minimum inhibitory concentration",1000 µg/mL
same,MIC,"[3]; standard conditions, read-out: MIC",1000 µg/mL
same,MIC,[4]; [6],≤ 1 µg/mL
same,MIC,"[4]; BW25113, standard conditions",256 µg/mL
same,decrease in MIC upon addition of Fe^3+,[4]; with vs without Fe^3+,≥ 256 fold
same,MIC,"[5]; BW25113, iron depleted, +bipy (150 μM)",256 µg/mL
same,MIC,[5]; [6],≤ 1 µg/mL
same,MIC,"[5]; BW25113, standard conditions",256 µg/mL
same,decrease in MIC upon addition of Fe^3+,[5]; with vs without Fe^3+,≥ 256 fold
